Six compounds from US20240376109A1, “PYRAZOLO[1,5-A]PYRIMIDINE COMPOUND FOR THE TREATMENT OF DERMAL DISORDERS” (OTSUKA PHARMACEUTICAL CO., LTD., priority 2021, published 2024) can be followed below.

The target of one data set is T1, PAR2 (Homo sapiens, UniProt P55085).
T1 construct: HEK293 cell lines derived from human embryonic kidney cultured in a MEM culture medium; endogenous in cells; host or cells: HEK293
T1 sequence (P55085 26-397): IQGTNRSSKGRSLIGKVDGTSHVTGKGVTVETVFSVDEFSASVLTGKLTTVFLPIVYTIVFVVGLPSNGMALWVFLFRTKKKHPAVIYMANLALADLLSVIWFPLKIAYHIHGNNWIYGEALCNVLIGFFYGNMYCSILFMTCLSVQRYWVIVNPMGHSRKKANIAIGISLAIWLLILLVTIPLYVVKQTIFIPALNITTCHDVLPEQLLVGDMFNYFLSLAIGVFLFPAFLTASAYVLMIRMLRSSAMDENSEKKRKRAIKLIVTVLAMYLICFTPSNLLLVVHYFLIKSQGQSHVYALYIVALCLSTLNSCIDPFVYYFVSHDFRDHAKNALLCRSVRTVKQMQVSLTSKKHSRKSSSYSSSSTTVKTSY
The data set can be described thus: Intracellular calcium concentration measurement (SLIGKV-NH2-induced calcium change, Fluo-8, FDSS/μCELL). The class given is cell-based.

A further data set has as its system ICR mice. The data set can be described thus: Scratching behavior test with PAR2 agonist peptide (SLIGRL-NH2) administration. The class given is in vivo, mouse. The conditions noted are these: 40 μL of 6% test compound solution applied to back, SLIGRL-NH2 intradermal, scratching counted 10 to 40 minutes after. The protocol:
Test Example 2: Scratching Behavior Test with PAR2 Agonist Peptide Administration
Magnets for measuring scratching behavior(Neuroscience, Inc.) were implanted in both legs of 6- to 7-week-old female ICR mice under 3.5% isoflurane inhalation anesthesia.
Under isoflurane inhalation anesthesia, the upper back was shaved about 2×3 cm with a shaver and 40 μL of a 6% of test compound solution was applied with a micropipette. The animals were then kept in a dedicated cage for 1 hour. […] Then, under isoflurane inhalation anesthesia, 10 μL of a 25 mg/mL solution of PAR2 agonist peptide (SLIGRL-NH2) in distilled water was administered intradermally by using a needle attached to a Hamilton syringe. The animals were returned to the cage and the scratching frequency was measured by the device for 30 minutes from 10 to 40 minutes after the administration.
The inhibitory effect of the test compounds on scratching behavior was calculated as a percentage of the number of scratches in the solvent-applied and PAR2 agonist peptide-treated group, and is shown in Table 4 as a percentage.

A further data set concerns NZW rabbits. Description: Rabbit skin cumulative irritation test (erythema and edema scores, 7 days). It counts as in vivo. The arrangement: key: sum of erythema (5-point scale) + edema (5-point scale) scores. The conditions noted are these: 50 μL of 3% solution in 70% ethanol daily for 7 days; for Irritant score Day 7: average total score of erythema and edema on Day 7; for Irritant score Maximum: maximum (total) score of erythema and edema during the test period. As to the method: Test Example 4: Rabbit Skin Cumulative Irritation Test
18-20 week-old female NZW rabbits shaved on the back with a shaver were fitted with a collar (Natsume Seisakusho Co., Ltd.). A 2.5 cm×2.5 cm frame was placed on the back of the rabbits, and 50 μL of a 3% solution of each compound in 70% ethanol was applied to the place in 2 or 3 rabbits. The next day (approximately 24 hours later), the compound applied on the previous day was wiped off with a cotton pad soaked in lukewarm water, and approximately 30 minutes later, erythema (5-point scale) and edema (5-point scale) were evaluated according to the score criteria shown below.
After the score evaluation, the compound was applied again. This process was conducted for 7 days, and irritancy was evaluated by the average of the total score of erythema and edema on the last day of evaluation (Day 7) and the maximum (total) scores during the test period.
The score evaluation criteria were as follows.

Another data set relates to NC/Nga mice. Description: Scratching behavior test using atopic dermatitis model (SDS and mite antigen ointment sensitization). The conditions noted are these: 60 μL applied, 7 hours after application.
Setting [1] is: HEK293 cells, SLIGKV-NH2 10 μM-induced intracellular calcium change, read-out: IC50.
[2] abbreviates: assessed concentration 6%, solvent 100% ethanol.

Where two headings read alike, the source gives them in different places.

In the case of `O=C(c1cc2nc(CC3CCCCC3)cc(C(F)(F)F)n2n1)N1CCCCCC1` [Example 3, azepan-1-yl(5-(cyclohexylmethyl)-7-(trifluoromethyl)pyrazolo[1,5-a]pyrimidin-2-yl)methanone], the IC50 on PAR2 (setting [1]) amounted to 23 nM. Further, the scratching-behavior inhibition rate in the data set with ICR mice (solvent 70% ethanol) is reported as 33%. Also, in the data set on NZW rabbits, the “Irritant score Day 7” value was determined as 1.5 and the “Irritant score Maximum” value stood at 1.6. For the same compound, the “Scratching behavior inhibition rate” value with NC/Nga mice (assessed concentration 6%, solvent 70% ethanol) came to 71%.
Turning to `CC(C)c1cc(CC2CCCCC2)nc2cc(C(=O)N3CCCCCC3)nn12` [Example 7, azepan-1-yl(5-(cyclohexylmethyl)-7-isopropylpyrazolo[1,5-a]pyrimidin-2-yl)methanone], the IC50 on PAR2 (IC50 (nM)) came to 113 nM. This compound showed a scratching-behavior inhibition rate with ICR mice (solvent 100% ethanol) of 32%. Moreover, in the data set with NZW rabbits, the “Irritant score Day 7” value is on record as 0.3 and the “Irritant score Maximum” value stood at 1.3. Also, the “Scratching behavior inhibition rate” value with NC/Nga mice (setting [2]) was 70%.
For the compound `CC(C)c1cc(CC2CCCC2)nc2cc(C(=O)N3CCCCC3(C)C)nn12` [Example 12], the half-maximal inhibitory concentration (IC50) on PAR2 (setting [1]) came out at 76 nM. In the data set with ICR mice (solvent 100% ethanol), this compound yielded a scratching-behavior inhibition rate of 51%. Further, in the data set on NZW rabbits, the “Irritant score Day 7” value is listed as 0.0 and the “Irritant score Maximum” value is on record as 0.0. Further, the “Scratching behavior inhibition rate” value with NC/Nga mice (setting [2]) is recorded as 102%.
As for `CC(C)c1cc(CCC2CCCC2)nc2cc(C(=O)N3CCCCCC3)nn12` [Example 14], the half-maximal inhibitory concentration (IC50) at PAR2 (setting [1]) was 186 nM. For the same compound, in the data set on NZW rabbits, the “Irritant score Day 7” value turned out to be 2.0 and the “Irritant score Maximum” value was 2.0. For the same compound, the “Scratching behavior inhibition rate” value in the data set with NC/Nga mice (setting [2]) came out at 95%.
With `CC(C)c1cc(CC2CCCC2)nc2cc(C(=O)N3CCCCCC3)nn12` [Example 15, azepan-1-yl-[5-(cyclopentylmethyl)-7-propan-2-ylpyrazolo[1,5-a]pyrimidin-2-yl]methanone], the IC50 on PAR2 (setting [1]) was found to be 150 nM. This compound yielded a scratching-behavior inhibition rate with ICR mice (solvent 100% ethanol) of 44%. Moreover, in the data set on NZW rabbits, the “Irritant score Day 7” value is listed as 0.0 and the “Irritant score Maximum” value came out at 0.7. In addition, the “Scratching behavior inhibition rate” value with NC/Nga mice (assessed concentration 3%, solvent 100% ethanol) was 52%.
As to `CC(C)c1cc(CCC2CCCCC2)nc2cc(C(=O)N3CCCCCC3)nn12` [Example 17], the IC50 on PAR2 (setting [1]) was found to be 232 nM. Also, in the data set on NZW rabbits, the “Irritant score Day 7” value came to 0.7 and the “Irritant score Maximum” value came to 1.3. Also, the “Scratching behavior inhibition rate” value in the data set on NC/Nga mice (setting [2]) came out at 60%.
